Experimental data taken from ChEMBL document CHEMBL3507680, “University of Dundee, Gates Library screen for HepG2 cell viability”.

assay: Human HepG2 cell viability assay in 384 well format; assay type: toxicity, cell-based; set-up: dose 125 nL, time 70.5 hour; concentration not given beside the values; settings: HepG2 cells, read-out: Inhibition

Structure (SMILES)	cytotoxicity at 70.5 h [%]
COCC(=O)N1CCCC2(COCCN(CCN(C)C)C2)C1 (centres undefined)	8.27
CCN(CC)CCCNC(=O)C(C)n1cc(Br)cn1 (centres undefined)	-1.37
CS(=O)(=O)C1=C(O)C(=O)N(c2ccccc2)C1c1ccccc1 (centres undefined)	-4.58
CCn1nc(C)c2nnn(CC(=O)Nc3cccc(F)c3)c(=O)c21	-5.5
CCn1cc(C(=O)Nc2cc(C)ccc2C)cn1	17
COCC(O)CN1CCC(=O)N(CC=C(C)C)Cc2ccccc21 (centres undefined)	-6.53
CNS(=O)(=O)c1cccc(C(C)NCc2cccc(O)c2)c1 (centres undefined)	-11.9
Cc1nc(C2CCCN2C(=O)Cc2ccc(F)cc2)ncc1C(N)=O (centres undefined)	-8.28
CCCC1(NC(=O)C(c2ccc(F)cc2)N(C)C)CC1 (centres undefined)	10.6
Cc1noc(CCCNS(=O)(=O)N2CCCC2c2ccco2)n1 (centres undefined)	-9.07
Cc1nnc(C(NS(=O)(=O)c2cc(F)c(C)cc2F)C(C)C)[nH]1 (centres undefined)	-5.12
CC(C)CN(c1cn[nH]c1)S(=O)(=O)c1cccc(C#N)c1	-6.94
Cc1cccc(NC2CCN(C(=O)Nc3cc(C)on3)CC2)n1	-14.3
CNC(=O)c1cccnc1NCCOc1ccccc1	-0.952
Cc1nnc([C@@H]2CCO[C@@H]3CCN(C(=O)Cc4ccccn4)C[C@@H]32)o1	-0.42
CN(C)C(=O)c1cccn1-c1ccc2c(c1)OCCO2	-2.2
CCC(C(=O)NCc1cccnc1)N(c1cccc(C)c1)S(C)(=O)=O (centres undefined)	6.87
Cc1noc(CNC(=O)CN(C)c2nc3c(C)ccc(C)c3s2)n1	12.2
COc1ccc(OCc2cc(C(=O)N3CCOCC3)n[nH]2)c(Cl)c1	-2.87
COc1cc(CNC2CCN(c3ccccc3)C2)cc(OC)c1OC (centres undefined)	-6.84
CCn1c(C)cc(C(=O)NCc2ccc(CS(C)(=O)=O)cc2)c1C	-7.81
COc1cc(C2SCC(=O)Nc3[nH]ncc32)c(OC)c2c1OCO2 (centres undefined)	-12.7

Structure (SMILES)	cytotoxicity at 70.5 h [%]
CC(NCc1cccs1)c1ccc(OCc2nccn2C)cc1 (centres undefined)	-4.31
Clc1ccc(CNc2cnn(CCN3CCOCC3)c2)cc1Cl	-19.4
COc1ccc(CN2C[C@@H]3CN(Cc4ccncc4)C[C@@H]3C2=O)cc1	-8.45
Cc1nnc([C@H]2C[C@H]3OCC[C@H]3N(S(=O)(=O)N(C)C)C2)o1	-3.65
O=C(Cc1ccccc1F)N1CCN(Cc2noc(C3CC3)n2)CC1	10.8
O=C(c1ccc(Cl)o1)N1CCCN(Cc2cscn2)CC1	-5.01
Cc1ncc(CC(=O)N2CCC(N3C[C@@H](C)O[C@@H](C)C3)CC2)c(=O)[nH]1	9.33
CN(CCC(=O)N1CCc2sccc2C1)Cc1cnn(C)c1	-2.72
Cc1noc(C)c1C(=O)N1CCC2(CC1)CC(Oc1ccccc1)CO2 (centres undefined)	-3.84
CC(C)c1nccc(-c2nccn2CCS(C)(=O)=O)n1	-16.1
COCCCN(Cc1ccccn1)S(=O)(=O)N(C)C	26.3
CC(C)NC(=O)c1nc(Cn2c(C(F)(F)F)nc3ccccc32)no1	14.5
Cc1ccc(Br)c(S(=O)(=O)NCc2ccnn2C)c1	-5.04
CC(=O)N(C)c1nc(Cn2nnnc2C(C)(C)C)cs1	-4.99
O=C(COCC1CC1)Nc1ncccc1O	-6.89
CN(Cc1cn2c(n1)CN(C(=O)c1cccnc1)CC2)Cc1ccco1	-2.78
O=C(c1cnc2ccc(Cl)cc2c1NCc1ccco1)N1CCCCC1	23.3
CC(C)NC(=O)CS(=O)(=O)Cc1cc(Cl)c2c(c1)OCCO2	-1.77
O=C(CCn1c(C(F)(F)F)cc2cccnc21)NC1CCCC1	-3.77
Cc1cnn(CC2CCN(CC(O)c3ccccc3F)CC2)c1 (centres undefined)	8.3
CCCOc1cccc(NS(=O)(=O)c2cc(C(=O)O)cs2)c1	4.51
COc1c(F)cc(CN2CCC3(CC2)C(C(=O)O)CC(=O)N3C)cc1Cl (centres undefined)	-3.91
